Reference: patent US20230089715A1, “MASITINIB FOR THE TREATMENT OF A MULTIPLE SCLEROSIS PATIENT SUBPOPULATION” (AB SCIENCE, priority 2020, published 2023)

Tested on: patients with progressive multiple sclerosis (PPMS or non-active SPMS)
Experiment: Study AB07002: randomized, double-blind, placebo-controlled phase 3 study, overall EDSS change from baseline
Format: in vivo, human
Set-up: key to LSM EDSS, MAS (overall EDSS change from baseline): LS mean EDSS change from baseline; positive value = worsening
Conditions: 4.5 mg/kg/day oral, 96 weeks
Description: An international, multicenter, randomized, double-blind, placebo-controlled phase 3 study was conducted with the objective to evaluate oral masitinib at a dose of 4.5 mg/kg/day as a treatment for progressive multiple sclerosis (progressive MS), as defined hereinabove. […] Eligible patients were treated for 96 weeks with masitinib at a dose of 4.5 mg/kg/day (mg per kilo body weight per day) or with placebo. Primary endpoint was overall EDSS change from baseline using a repeated analysis of covariance model (i.e., ANCOVA GEE model on all measurements from week 12 (W12) to week 96 (W96)). Results are expressed as least-squares means difference, illustrating the progression of EDSS score, that is to say the change over time in the EDSS score or in other words the difference between the EDSS score at baseline and the EDSS score after treatment with masitinib or with placebo (a positive value indicates a worsening of the patient). Treatment-effect is reported as between-group difference (ΔLSM, negative value indicates a beneficial effect of treatment with masitinib as compared to treatment with placebo). […] Patients suffering from a disease other than MS that would better explain their neurological clinical signs and symptoms and/or lesions observed with magnetic resonance imaging (“MRI lesions”) were excluded. Subpopulation analyses of primary endpoint data from study AB07002 assessed the impact of the clinical markers ‘time from onset’ with respect to baseline (i.e., date of treatment initiation), derived from the estimated date of first clinical MS symptom(s), or ‘time from diagnosis’ with respect to baseline (i.e., date of treatment initiation), on masitinib efficacy in patients with progressive MS (see Example 3). ‘Time from onset’ is derived from the date (year/month/day, year/month, or year) of first clinical symptom(s) with duration calculated from date of treatment initiation. The date of first symptom(s) is typically determined retrospectively from medical history, for example from medical records and patient/caregiver historical recall of MS related symptoms following a clinically definite diagnosis. Imputation of missing data can be handled using various methods, one example of which is the following approach: if the information regarding day is missing, the day is considered to be the last day of the month; if the day and month are missing, the day is considered to be the last day of June. ‘Time from diagnosis’ of progressive MS, is ideally based on a clinically definite diagnosis of progressive MS as determined by a MS specialist neurologist. In practice it is derived from the date (year/month/day, year/month, or year) of first clinically definite diagnosis of progressive MS, i.e., PPMS or non-active SPMS, with duration calculated from date of treatment initiation. At the time of MS diagnosis, a provisional disease course should be specified (relapsing-remitting, primary progressive, or secondary progressive) and whether the course is active or not (non-active) and progressive or not based on the previous year's history. The phenotype should be periodically re-evaluated based on accumulated information. Comparison of subpopulation analyses with respect to the corresponding full analysis dataset (see Table 4) is reported as relative difference in ΔEDSS (R %). A large positive R % value indicates a subpopulation that receives greater benefit from masitinib treatment, while a negative R % value indicates a diminished treatment-effect or lack of discernable treatment-effect in the subpopulation.

[1] = PPMS, T(diag) > 2 Y and T(onset) > 5 Y
[2] = PPMS, complement T(diag) ≤ 2 Y or T(onset) ≤ 5 Y
[3] = Progressive MS, T(diag) > 2 Y and T(onset) > 5 Y

## Cc1ccc(NC(=O)c2ccc(CN3CCN(C)CC3)cc2)cc1Nc1nc(-c2cccnc2)cs1 [masitinib, 4-(4-methylpiperazin-1-ylmethyl)-N-[4-methyl-3-(4-pyridin-3ylthiazol-2-ylamino)phenyl]benzamide]
PPMS, T(diag) > 1 Y
  LSM EDSS, MAS (overall EDSS change from baseline): −0.004
  R % (relative difference in ΔEDSS with respect to full analysis dataset): 31%
  ΔEDSS (between group difference, treatment-effect vs placebo): −0.174
[1]
  LSM EDSS, MAS (overall EDSS change from baseline): −0.076
  ΔEDSS (between group difference, treatment-effect vs placebo): −0.283
PPMS, T(diag) > 2 Y and T(onset) > 5 Y, 4.5 mg/kg/day
  R % (relative difference in ΔEDSS with respect to full analysis dataset): 113%
PPMS, T(diag) > 2 Y
  LSM EDSS, MAS (overall EDSS change from baseline): −0.070
  ΔEDSS (between group difference, treatment-effect vs placebo): −0.246
PPMS, T(diag) > 2 Y, 4.5 mg/kg/day
  R % (relative difference in ΔEDSS with respect to full analysis dataset): 85%
PPMS, T(diag) > 3 Y
  LSM EDSS, MAS (overall EDSS change from baseline): −0.099
  ΔEDSS (between group difference, treatment-effect vs placebo): −0.211
PPMS, T(diag) > 3 Y, 4.5 mg/kg/day
  R % (relative difference in ΔEDSS with respect to full analysis dataset): 59%
PPMS, T(diag) > 4 Y
  LSM EDSS, MAS (overall EDSS change from baseline): 0.097
  R % (relative difference in ΔEDSS with respect to full analysis dataset): 25%
  ΔEDSS (between group difference, treatment-effect vs placebo): −0.166
PPMS, T(diag) ≤ 1 Y
  LSM EDSS, MAS (overall EDSS change from baseline): −0.097
  ΔEDSS (between group difference, treatment-effect vs placebo): 0.137
PPMS, T(diag) ≤ 2 Y
  LSM EDSS, MAS (overall EDSS change from baseline): 0.190
PPMS, T(diag) ≤ 3 Y
  LSM EDSS, MAS (overall EDSS change from baseline): 0.070
  ΔEDSS (between group difference, treatment-effect vs placebo): 0.009
PPMS, T(diag) ≤ 4 Y
  LSM EDSS, MAS (overall EDSS change from baseline): 0.099
  ΔEDSS (between group difference, treatment-effect vs placebo): −0.089
PPMS, T(onset) > 1 Y
  LSM EDSS, MAS (overall EDSS change from baseline): 0.040
  R % (relative difference in ΔEDSS with respect to full analysis dataset): −6%
  ΔEDSS (between group difference, treatment-effect vs placebo): −0.125
PPMS, T(onset) > 2 Y
  LSM EDSS, MAS (overall EDSS change from baseline): 0.026
  R % (relative difference in ΔEDSS with respect to full analysis dataset): 5%
  ΔEDSS (between group difference, treatment-effect vs placebo): −0.139
PPMS, T(onset) > 3 Y
  LSM EDSS, MAS (overall EDSS change from baseline): 0.021
  R % (relative difference in ΔEDSS with respect to full analysis dataset): 31%
  ΔEDSS (between group difference, treatment-effect vs placebo): −0.174
PPMS, T(onset) > 4 Y
  LSM EDSS, MAS (overall EDSS change from baseline): 0.028
  R % (relative difference in ΔEDSS with respect to full analysis dataset): 22%
  ΔEDSS (between group difference, treatment-effect vs placebo): −0.162
PPMS, T(onset) > 5 Y
  LSM EDSS, MAS (overall EDSS change from baseline): 0.029
  ΔEDSS (between group difference, treatment-effect vs placebo): −0.214
PPMS, T(onset) > 5 Y, 4.5 mg/kg/day
  R % (relative difference in ΔEDSS with respect to full analysis dataset): 61%
PPMS, T(onset) ≤ 3 Y
  LSM EDSS, MAS (overall EDSS change from baseline): 0.111
  ΔEDSS (between group difference, treatment-effect vs placebo): 0.349
PPMS, T(onset) ≤ 4 Y
  LSM EDSS, MAS (overall EDSS change from baseline): −0.082
  ΔEDSS (between group difference, treatment-effect vs placebo): 0.051
PPMS, T(onset) ≤ 5 Y
  LSM EDSS, MAS (overall EDSS change from baseline): 0.314
[2]
  LSM EDSS, MAS (overall EDSS change from baseline): 0.180
  ΔEDSS (between group difference, treatment-effect vs placebo): 0.118
PPMS, full analysis dataset
  LSM EDSS, MAS (overall EDSS change from baseline): 0.030
PPMS, full analysis dataset, 4.5 mg/kg/day
  ΔEDSS (between group difference, treatment-effect vs placebo): −0.133
PPMS, full analysis dataset, listed as Masitinib, 4.5 mg/kg/day
  ΔEDSS (between group difference, treatment-effect vs placebo): non-significant trend
Progressive MS, T(diag) > 1 Y
  LSM EDSS, MAS (overall EDSS change from baseline): −0.012
  R % (relative difference in ΔEDSS with respect to full analysis dataset): 10%
  ΔEDSS (between group difference, treatment-effect vs placebo): −0.109
[3]
  LSM EDSS, MAS (overall EDSS change from baseline): −0.057
  ΔEDSS (between group difference, treatment-effect vs placebo): −0.162
Progressive MS, T(diag) > 2 Y and T(onset) > 5 Y, 4.5 mg/kg/day
  R % (relative difference in ΔEDSS with respect to full analysis dataset): 64%
Progressive MS, T(diag) > 2 Y
  LSM EDSS, MAS (overall EDSS change from baseline): −0.029
  ΔEDSS (between group difference, treatment-effect vs placebo): −0.133
Progressive MS, T(diag) > 2 Y, 4.5 mg/kg/day
  R % (relative difference in ΔEDSS with respect to full analysis dataset): 34%
Progressive MS, T(diag) > 3 Y
  LSM EDSS, MAS (overall EDSS change from baseline): −0.068
  R % (relative difference in ΔEDSS with respect to full analysis dataset): 39%
  ΔEDSS (between group difference, treatment-effect vs placebo): −0.138
Progressive MS, T(diag) > 4 Y
  LSM EDSS, MAS (overall EDSS change from baseline): −0.053
  R % (relative difference in ΔEDSS with respect to full analysis dataset): 48%
  ΔEDSS (between group difference, treatment-effect vs placebo): −0.147
Progressive MS, T(diag) ≤ 1 Y
  LSM EDSS, MAS (overall EDSS change from baseline): −0.099
